Results as given in patent publication US20170112748A1, “N-ACYLPEPTIDE DERIVATIVES AND THEIR USES” (NeoStrata Company, Inc., priority 2012, published 2017).

Key:
Assay type in all cases: in vivo, human
[1] = topical treatment of chronic dermatoses with scaly skin and itch, clinical evaluation; details: Example 11: subject
Description: The subject topically applied twice daily a pentapeptide derivative, N-Ac-L-Ala-L-Leu-L-Lys-L-His-L-Arg-NH2 (SEQ ID NO: 51) 0.2% (w/v) in WEP442, pH 3.4, as prepared in Example 2. […] The treated skin had 80-90% improvement as judged by clinical evaluation.

[2] = summary of test results in volunteer subjects, efficacy grades; details: efficacy grade
Description: Subject 1. Person had multiple red and itchy inflammation, dermatitis, or eczema lesions, which were resistant to conventional treatments including corticosteroids. Subject 2. Person had small red and itchy lesions which were resistant to topical corticosteroid treatment. Subject 3. Person had multiple red and itchy inflammation, dermatitis, or eczema lesions over the body for many years, which were resistant to conventional treatments including corticosteroids. Subject 4. Person had red and itchy inflammation, dermatitis, or eczema lesions for many years, which were resistant to topical corticosteroid treatment. Subject 5. Person had early stage of aging related skin changes on both forearms as indicated by age spots and wrinkled skin caused by solar damage. Subject 6. Person had age spots, keratoses and wrinkles on both forearms caused by intrinsic and extrinsic aging. Subject 7. Person had age spots, and wrinkles on both forearms caused by intrinsic and extrinsic aging. Subject 8. Person had osteoarthritis of both knees with inflammation and pain for more than 4 years, and had only mild transitory relief from conventional treatments. Subject 9. Person had sensitive skin with inflammatory lesions on the body. Subject 12. Person had dermatitis and inflammatory lesions on the left palm. Subject 14. Person had multiple age spots including lentigines and keratosis on their face. Subject 15. Person had psorisis Subject 16. Person had sensitive skin and eczema for more than 40 years
In another embodiment, the volunteer subject topically applied the test compositions containing N-acylpeptide derivatives of the present invention on involved skin or lesions once or twice daily for several weeks or until the involved lesions completely cleared and clinically changed to normal skin. As a control study, the subject also topically applied a vehicle control composition on the involved skin or lesions twice daily for the same period.
In yet another embodiment, the volunteer subject topically applied once or twice daily the test compositions containing N-acylpeptide derivatives of the present invention on the skin site above arthritic joints or painful muscles to provide therapeutic effects for the systemic disorders via topical administration.
In yet another embodiment, the volunteer subject injected intra-articularly into a knee joint a test composition containing a N-acylpeptide derivative of the present invention to improve and reduce arthritic inflammation and pain of the joint.
Some test results are summarized as follows.
DK: Disturbed keratinization AG: Aging related changes of skin, nail and hair DI: Deranged immune disorders and inflammation ND: Nerve disorders CA: Tumors and/or cancers

[3] = skin plump / skin thickness test after topical application, caliper measurement
Method: In one of the studies related to skin changes associated with aging, skin thickness was measured by micrometer calipers as follows.
The skin was grasped with a 2×6 cm metal hinge: the internal faces of which were coated with emery cloth to prevent slippage, and manually squeezed to threshold subject discomfort. Combined thickness of two whole-skin layers including thickness of the two hinge leaves was measured with micrometer calipers. Thickness of the two hinge leaves was subtracted to determine the actual thickness of two whole-skin layers. Triplicate measurements on treated sites were done and an average number was used for calculation of the skin thickness.
In other studies, test sites of skin 17 mm in diameter were used, the circular sites were marked with permanent ink. Intervening control sites were also 17 mm in diameter. Thickness of skin of all sites was measured directly by means of an electronic digital caliper. In this instance the jaws of the caliper were opened to 17 mm, applied with pressure to the skin sites and then closed to firm tightness. Thickness of skin was then read off the screen of the calipers. Measurements of all sites were made in triplicates. […]

[4] = topical treatment of chronic inflammation, erythema, eczema with thick scales and itch, clinical evaluation; details: Example 10: subject, -NH2 0.3% and -OEt 0.5% (w/v) in WEP442
Description: The involved skin was divided into two lesions for testing. The subject topically applied twice daily to one lesion, N-Ac-L-Tyr-L-Tyr-L-Tyr-NH2 0.3% (w/v) in WEP442, pH 5.9 solution composition, prepared according to Example 2, and to second lesion, N-Ac-L-Tyr-L-Tyr-L-Tyr-OEt 0.5% (w/v) in WEP 442, pH 6.0, prepared according to Example 2. […] The treated skin had 90-95% improvement as judged by clinical evaluation.

[5] = appetite for food after topical application on forehead; details: Example 12: subject, 0.3% (w/v) in WEP442 once on forehead one hour before dinner
Method: A subject, having normal and regular eating habit, topically applied once N-Ac-L-Tyr-L-Tyr-L-Tyr-NH2, 0.3% (w/v) in WEP442, pH 5.9 prepared according to Example 2 on their forehead one hour before the regular dinner time. After about 50-60 minutes of the topical application, the subject strated to feel loss of appetite for food.

[6] = topical treatment of plaque psoriasis, clinical evaluation; details: Example 13: subject, 0.2% (w/w) in cream twice daily, 3 weeks
Description: A subject, having plaque psoriasis, topically applied twice daily N-Ac-L-Tyr-L-Tyr-L-Tyr-NH2 0.2% (w/w) in cream to plaque lesions for 3 weeks. The treated lesions started to improve after a few days of topical application. […] The treated lesions had 40-50% improvement as judged by clinical evaluation.

[7] = topical treatment of bilateral inter-metacarpal atrophy of hands; details: Example 23: subject, 1% (w/v) in WEP442 twice daily after the first course
Description: A subject had bilateral inter-metacarpal atrophy of both hands with certain restrictions of hand movements. The subject topically applied two to three times daily N-Ac-L-Tyr-L-Tyr-L-Tyr-OEt, 2% (w/v) in EP73 on the back of their left hand, and vehicle control EP73 on the back of their right hand for three weeks.
The subject now, topically applied twice daily N-Ac-L-Tyr-L-Tyr-L-Tyr-NH2, 1% (w/v) in WEP442 on the back of their left hand as a mantenace therapy.

[8] = anxiety, stress and mood disorders after topical application on forehead; details: Example 16: subject, 0.2% in WEP442 on forehead, after two hours
Description: A subject had mild forms of anxiety, stress and mood disorders which provoked restlessness, lack of concentration, and mild depression. […] The subject then topically applied N-Ac-L-Val-L-Tyr-L-Tyr-NH2, 0.2% in WEP442 on their forehead.

Substance	AG: Aging related changes of skin, nail and hair [2]	DI: Deranged immune disorders and inflammation [2]	DK: Disturbed keratinization [2]	ND: Nerve disorders [2]	also measured
N-Ac-L-Ala-L-Leu-L-Lys-L-His-L-Arg-NH2 (Ac-ALKHR-NH2)	3+ (3+: 75% Efficacy)	4+ (4+: 95-100% Efficacy)	3+ (3+: 75% Efficacy)	3+ (3+: 75% Efficacy)	itch ([1]; 0.2% (w/v) in WEP442 pH 3.4 topical): stopped within a few minutes; improvement as judged by clinical evaluation ([1]; right leg, 0.2% (w/v) in WEP442 pH 3.4 twice daily, 2 weeks): 80-90%
N-Ac-L-Arg-L-Arg-L-Arg-NH2	2+ (2+: 50% Efficacy)	2+ (2+: 50% Efficacy)	2+ (2+: 50% Efficacy)	2+ (2+: 50% Efficacy)	–
N-Ac-L-Ser-L-Ser-L-Ser-NH2	2+ (2+: 50% Efficacy)	2+ (2+: 50% Efficacy)	2+ (2+: 50% Efficacy)	2+ (2+: 50% Efficacy)	–
N-Ac-L-Tyr-L-Tyr-L-Tyr-NH2	4+ (4+: 95-100% Efficacy)	4+ (4+: 95-100% Efficacy)	4+ (4+: 95-100% Efficacy)	4+ (4+: 95-100% Efficacy)	increase in skin thickness ([3]; Example 8: subject, severe photodamage, right wrist distal, 0.5% (w/v) in WEP721 three times daily, 7 days): 5-10%; increased skin thickness ([3]; Example 20: subject, photoaging forearms, 0.8% (w/v) in WEP442 three times daily, four weeks): ~15%; increased skin thickness ([3]; Example 20: subject, photoaging forearms, 1% (w/v) in WEP442 three times daily, four weeks): ~28%; increased skin thickness ([3]; Example 21: subject, sun damaged forearms, 1% (w/v) in WEP442 three times daily, one week): ~24%; itch [4]: stopped within a few minutes; amount of food eaten at dinner [5]: only half the amount of food they usually would consume; time after topical application until loss of appetite for food was felt [5]: 50 to 60 min; improvement of treated lesions as judged by clinical evaluation [6]: 40-50%; inter-metacarpal atrophy of left hand, maintenance therapy [7]: continued to improve with no signs of inter-metacarpal atrophy
N-Ac-L-Val-L-Tyr-L-Tyr-NH2	3+ (3+: 75% Efficacy)	2+ (2+: 50% Efficacy)	2+ (2+: 50% Efficacy)	4+ (4+: 95-100% Efficacy)	effect on anxiety, stress and mood disorders [8]: anxiety, stress and mood disorders started to disappear
N-Ac-L-Val-L-Val-L-Ala-NH2	2+ (2+: 50% Efficacy)	2+ (2+: 50% Efficacy)	2+ (2+: 50% Efficacy)	3+ (3+: 75% Efficacy)	–
N-Bz-L-Ala-L-Leu-L-Lys-L-His-L-Arg-NH2 (ALKHR; HELM PEPTIDE1{[O=C(c1ccccc1)[*:2]].A.L.K.H.R.[am]}$$$$V2.0; SMILES CC(C)C[C@H](NC(=O)[C@H](C)NC(=O)c1ccccc1)C(=O)N[C@@H](CCCCN)C(=O)N[C@@H](Cc1c[nH]cn1)C(=O)N[C@@H](CCCNC(=N)N)C(N)=O)	4+ (4+: 95-100% Efficacy)	3+ (3+: 75% Efficacy)	3+ (3+: 75% Efficacy)	2+ (2+: 50% Efficacy)	–
N-Pr-L-Ala-L-Leu-L-Lys-L-His-L-Arg-NH2 (ALKHR; HELM PEPTIDE1{[CCC(=O)[*:2]].A.L.K.H.R.[am]}$$$$V2.0; SMILES CCC(=O)N[C@@H](C)C(=O)N[C@@H](CC(C)C)C(=O)N[C@@H](CCCCN)C(=O)N[C@@H](Cc1c[nH]cn1)C(=O)N[C@@H](CCCNC(=N)N)C(N)=O)	2+ (2+: 50% Efficacy)	2+ (2+: 50% Efficacy)	2+ (2+: 50% Efficacy)	2+ (2+: 50% Efficacy)	–
